Molecules are shown by their SMILES. ≈ marks a conversion by molar mass, not a printed value. Like-named read-outs stand apart in the source and are kept apart here.

Experiment [1] concerns S. aureus ATCC 29213. Conditions: per CLSI M100-S24 or provided by Microbion; cited from earlier work.
For experiment [2], the system named is E. faecalis. Briefly: Broth microdilution MIC (Example 5). Conditions: Enterococcus faecalis, VRE. The format is cell-based, Enterococcus faecalis. Here is the method: (§1) Test and Comparator Agents: The test agents were stored at room temperature until assayed. […] The stock solutions were allowed to stand for at least 1 hr prior to use to auto-sterilize.
(§2) TestMedia: Test media were prepared and stored in accordance with guidelines from CLSI (4, 6, 7).
(§3) Broth Microdilution MC Testing (Aerobic Bacteria and Yeast): The broth microdilution assay method employed for the susceptibility testing of aerobic bacteria (excluding N. gonorrhoeae which was evaluated by agar dilution) and yeast essentially followed the procedures described by CLSI (3, 4, 7, 8) and employed automated liquid handlers to conduct serial dilutions and liquid transfers. […] These would become the ‘mother plates’ from which ‘daughter’ or test plates would be prepared. The drugs (300 μL at 40× the desired top concentration in the test plates) were dispensed into the appropriate well in Column 1 of the mother plates. The Biomek 2000 was used to make serial two-fold dilutions through Column 11 in the “mother plate”. The wells of Column 12 contained no drug and ultimately served as the organism growth control wells.
(§4) The daughter plates were prepared using the Biomek FX which transferred 5 μL of drug solution from each well of a mother plate to the corresponding well of the correct daughter plate in a single step.
(§5) A standardized inoculum of each organism was prepared per CLSI methods (3, 7). Isolated colonies of each test isolate were picked from the primary plate and a suspension was prepared to equal a 0.5 McFarland turbidity standard. Standardized suspensions were then diluted […] (1:100 for yeast, 1:20 for bacteria). After dilution, the inoculum suspensions were then transferred to compartments of sterile reservoirs divided by length (Beckman Coulter), and the Biomek 2000 was used to inoculate all plates. Daughter plates were placed on the Biomek 2000 in reverse orientation so that plates were inoculated from low to high drug concentration.
(§6) The Biomek 2000 delivered 10 μL of standardized inoculum into each well of the appropriate daughter plate for an additional 1:20 dilution.
(§7) Plates were stacked 4 high, covered with a lid on the top plate, placed into plastic bags, and incubated at 35° C. for approximately 24-48 hr for all yeast isolates and 16-24 hr for aerobic bacteria. Plates were viewed from the bottom using a plate viewer. […] MIC endpoints for the test agents and control compounds were read per CLSI criteria (3, 7).
A general note: In broth dilution the organism is exposed to a series of concentrations in liquid medium.

Experiment [3] deals with C. parapsilosis. Briefly: Broth microdilution MIC, yeast (Example 5). The format is cell-based. Conditions: Lodderomyces parapsilosis. Here is the method: (§8) Test and Comparator Agents: The test agents were stored at room temperature until assayed. All test agents were suspended and diluted in 100% dimethylsulfoxide (DMSO), and were ultimately tested at a final concentration of 0.06-64 μg/mL. The stock solutions were allowed to stand for at least 1 hr prior to use to auto-sterilize.
(§9) The susceptibility of yeast isolates was determined by broth microdilution in RPMI medium (HyClone Laboratories, Logan, UT; Lot No. AZC184041B) buffered with 0.165 M MOPS (Calbiochem, Billerica, MA; Lot No. 2694962). The pH of the medium was adjusted to 7.0 with 1 N NaOH, sterile filtered using a 0.2 μm PES filter, and stored at 4° C. until used.
(§10) Broth Microdilution MC Testing (Aerobic Bacteria and Yeast): The broth microdilution assay method employed for the susceptibility testing of aerobic bacteria (excluding N. gonorrhoeae which was evaluated by agar dilution) and yeast essentially followed the procedures described by CLSI (3, 4, 7, 8) and employed automated liquid handlers to conduct serial dilutions and liquid transfers. Automated liquid handlers included the Multidrop 384 (Labsystems, Helsinki, Finland) and Biomek 2000 (Beckman Coulter, Fullerton CA). The wells in columns 2-12 in standard 96-well microdilution plates (Costar 3795) were filled with 150 μl of the correct diluent. These would become the ‘mother plates’ from which ‘daughter’ or test plates would be prepared. The drugs (300 μL at 40× the desired top concentration in the test plates) were dispensed into the appropriate well in Column 1 of the mother plates. The Biomek 2000 was used to make serial two-fold dilutions through Column 11 in the “mother plate”. The wells of Column 12 contained no drug and ultimately served as the organism growth control wells.
(§11) The daughter plates were loaded with 185 μL per well of the appropriate test media using the Multidrop 384. The daughter plates were prepared using the Biomek FX which transferred 5 μL of drug solution from each well of a mother plate to the corresponding well of the correct daughter plate in a single step.
as §5
(§12) The Biomek 2000 delivered 10 μL of standardized inoculum into each well of the appropriate daughter plate for an additional 1:20 dilution. […] The final concentration of DMSO (if used as a solvent) in the test well was 2.5%.
as §7

Experiment [4] deals with C. tropicalis. The experiment in a line: Broth microdilution MIC, yeast (Example 5). Format: cell-based. Conditions: Candida tropicalis, FLUR. Here is the method:
as §8, §9, §10, §11, §5, §12, §7

The subject of experiment [5] is C. glabrata. Briefly: Broth microdilution MIC, yeast (Example 5). Format: cell-based. Conditions: Nakaseomyces glabratus, FLUR. As to the method: as §8, §9, §10, §11, §5, §12, §7
In experiment [6] the test system is C. albicans. Briefly: Broth microdilution MIC, yeast (Example 5). Format: cell-based. Conditions: Candida albicans, Sensitive. As to the method: as §8, §9, §10, §11, §5, §12, §7
Experiment [7] relates to A. baumannii. The experiment in a line: Broth microdilution MIC (Example 5). The format is cell-based, Acinetobacter baumannii. Conditions: Acinetobacter baumannii. Here is the method:
as §1, §2, §3, §4, §5, §6, §7

Experiment [8] deals with C. difficile. Briefly: Agar dilution MIC, anaerobes (Example 5). The format is cell-based, Clostridium difficile. Conditions: Clostridioides difficile.
Experiment [9] concerns B. fragilis. The experiment in a line: Agar dilution MIC, anaerobes (Example 5). Format: cell-based. Conditions: Bacteroides fragilis, ATCC25285. (In general: In agar dilution, organisms are placed on agar that contains the substance at set levels.)
Setting [10] is: 24 h, C. parapsilosis MMX 7370, FLUR.
Where [11] appears, read: 24 h, C. parapsilosis MMX 7555, FLUR.
The mark [12] stands for this setting: 48 h, C. parapsilosis MMX 7370, FLUR.
[13] abbreviates: 48 h, C. parapsilosis MMX 7555, FLUR.
Setting [14] is: ATCC22019, 24 h, C. parapsilosis MMX 2323 (ATCC 22019), QC, 24 hr.
The mark [15] stands for this setting: ATCC22019, 48 h, C. parapsilosis MMX 2323 (ATCC 22019), QC, 48 hr.
Setting [16] is: A. baumannii MMX 3373, Sensitive, read-out: MIC.
[17] abbreviates: ATCC700057, C. difficile MMX 4381 (ATCC 700057), QC, CCI.
[18] abbreviates: C. difficile MMX 8272, ribotype 255, CCI.
Setting [19] is: C. difficile MMX 8279, ribotype 005, CCR.
[20] abbreviates: C. difficile MMX 8281, ribotype 010, CCR.
Where [21] appears, read: NCTC13307, C. difficile MMX 5681 (NCTC 13307), ribotype 012, CCR.
[22] abbreviates: NCTC13336, C. difficile MMX 5680 (NCTC 13336), ribotype 027, CCI METR.

For the compound `NCC[C@H](O)C(=O)N[C@@H]1C[C@H](N)[C@@H](O[C@H]2O[C@H](CN)[C@@H](O)[C@H](O)[C@H]2O)[C@H](O)[C@H]1O[C@H]1O[C@H](CO)[C@@H](O)[C@H](N)[C@H]1O` [Amikacin], in [1], the “MIC, acceptable range” value is 1 to 4 µg/mL and the “MIC, expected results” value is 2 µg/mL (≈ 3.42 µM).
On to `OCC(S)CS.[Bi]` (stereo not drawn) [MB-2B, bismuth-2,3-dimercaptopropanol], for which the MIC (as a rule, the smallest concentration in the dilution series that meets the test's criterion for growth inhibition) in experiment [2] (E. faecalis MMX 8960) was 2 µg/mL; in experiment [2] (E. faecalis MMX 8961), 2 µg/mL; in experiment [2] (E. faecalis MMX 8962) it was 2 µg/mL; in [3] (setting [10]), 0.5 µg/mL; in experiment [3] (setting [11]), 0.25 µg/mL; in [3] (setting [12]) it was 0.5 µg/mL. Also, the MIC came to 1 µg/mL in experiment [3] (setting [13]); 0.5 µg/mL in experiment [3] (setting [14]); 1 µg/mL in [3] (setting [15]); 2 µg/mL in experiment [4] (24 h, C. tropicalis MMX 7247); 4 µg/mL in experiment [4] (24 h, C. tropicalis MMX 7248); 1 µg/mL in experiment [4] (24 h, C. tropicalis MMX 7360). The minimal inhibitory concentration (MIC) in experiment [4] (48 h, C. tropicalis MMX 7247) was found to be 4 µg/mL; in experiment [4] (48 h, C. tropicalis MMX 7248) it was 4 µg/mL; in experiment [4] (48 h, C. tropicalis MMX 7360), 2 µg/mL; in experiment [5] (24 h, C. glabrata MMX 7086), 0.5 µg/mL; in experiment [5] (24 h, C. glabrata MMX 7318), 0.25 µg/mL; in experiment [5] (48 h, C. glabrata MMX 7086), 1 µg/mL. The MIC in [5] (48 h, C. glabrata MMX 7318) came out at 1 µg/mL; in experiment [6] (24 h, C. albicans MMX 7039), 2 µg/mL; in [6] (24 h, C. albicans MMX 7055), 1 µg/mL; in [6] (48 h, C. albicans MMX 7039), 2 µg/mL; in [6] (48 h, C. albicans MMX 7055), 4 µg/mL; in experiment [7] (A. baumannii MMX 2592, MDR), 16 µg/mL. The MIC in experiment [7] (A. baumannii MMX 2593, MDR) came to 16 µg/mL; in experiment [7] (A. baumannii MMX 3372, MDR) it was 16 µg/mL; in experiment [7] (setting [16]), 16 µg/mL; in experiment [7] (NCTC13304, A. baumannii MMX 4651 (NCTC 13304), MDR, OXA-27), 16 µg/mL; in experiment [8] (setting [17]) it was 8 µg/mL; in experiment [8] (setting [18]) it was 8 µg/mL. Also, the MIC in [8] (setting [19]) was found to be 16 µg/mL; in experiment [8] (setting [20]), 8 µg/mL; in experiment [8] (setting [21]) it was 8 µg/mL; in [8] (setting [22]), 2 µg/mL; in experiment [9] it was 8 µg/mL.
In the case of `CC(S)C(C)S.[Bi]` (stereo not drawn) [MB-6, bismuth-2,3-butanedithiol], the MIC in [2] (E. faecalis MMX 8960) was determined as 0.5 µg/mL; in [2] (E. faecalis MMX 8961), 0.25 µg/mL; in experiment [2] (E. faecalis MMX 8962), 0.25 µg/mL; in experiment [3] (setting [10]) it was 0.25 µg/mL; in experiment [3] (setting [11]), 0.25 µg/mL; in [3] (setting [12]) it was 0.5 µg/mL. Moreover, the minimal inhibitory concentration (MIC) in experiment [3] (setting [13]) was found to be 0.5 µg/mL; in experiment [3] (setting [14]), 0.5 µg/mL; in [3] (setting [15]), 1 µg/mL; in experiment [4] (24 h, C. tropicalis MMX 7247), 4 µg/mL; in experiment [4] (24 h, C. tropicalis MMX 7248) it was 4 µg/mL; in experiment [4] (24 h, C. tropicalis MMX 7360), 2 µg/mL. The MIC in experiment [4] (48 h, C. tropicalis MMX 7247) was 4 µg/mL; in experiment [4] (48 h, C. tropicalis MMX 7248), 8 µg/mL; in [4] (48 h, C. tropicalis MMX 7360), 2 µg/mL; in [5] (24 h, C. glabrata MMX 7086), 0.5 µg/mL; in [5] (24 h, C. glabrata MMX 7318) it was 0.25 µg/mL; in [5] (48 h, C. glabrata MMX 7086), 1 µg/mL. Further, the MIC in [5] (48 h, C. glabrata MMX 7318) turned out to be 0.5 µg/mL; in experiment [6] (24 h, C. albicans MMX 7055), 2 µg/mL; in experiment [6] (48 h, C. albicans MMX 7039) it was 2 µg/mL; in experiment [6] (48 h, C. albicans MMX 7055), 2 µg/mL; in [7] (setting [16]), 0.5 µg/mL; in experiment [8] (setting [17]), 4 µg/mL. The MIC in [8] (setting [18]) came out at 2 µg/mL; in [8] (setting [19]), 2 µg/mL; in [8] (setting [20]), 2 µg/mL; in experiment [8] (setting [21]), 2 µg/mL; in [8] (setting [22]), 2 µg/mL; in [9] it was 1 µg/mL. Besides, in experiment [1], the “MIC, acceptable range” value was 0.12 to 0.5 µg/mL. The “MIC, expected results” value in experiment [1] was 0.25 µg/mL.

Source of the values: patent US20240285571A1, “METHODS OF TREATING BONE INFECTIONS” (MICROBION CORPORATION, priority 2020, published 2024).
